Assay results published in patent publication US11168086B2, “Methods of synthesizing pyrazine compounds” (Hoffmann-La Roche Inc., priority 2015, dated 2021).

Tested on: HBV
Assay: HBV inhibition assay: anti-HBV activity in vitro in HepG2.2.15 cells (extracellular HBV DNA by qPCR)
Type: cell-based
Details: Hepatitis B virus, 120 h, five days after compound treatment, extracellular HBV DNA in culture supernatant by qPCR, concentration at which HBV replication is inhibited by 50%
In short: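 HepG2.2.15 cells (stably carrying HBV genome) treated with half-log serially diluted compounds at 0.5% DMSO final for five days. Extracellular HBV DNA in supernatant quantified by qPCR after Proteinase K digestion; EC50 is concentration giving 50% inhibition of replication.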

| Structure (SMILES) | EC50 [nM] |
| --- | --- |
| C[C@H]1Cn2ncc(N3CC(c4cncs4)CC3=O)c2CN1C(=O)Nc1cc(F)c(F)c(F)c1 (stereo partly drawn) [Example 290, (6S)-6-methyl-3-(2-oxo-4-thiazol-5-yl-pyrrolidin-1-yl)-N-(3,4,5-trifluorophenyl)-6,7-dihydro-4H-pyrazolo[1,5-a]pyrazine-5-carboxamide] | 11 |
| O=C(Nc1ccc(F)c(Cl)c1)N1CCn2ncc(C3CCCCC3)c2C1 [Example 73, N-(3-chloro-4-fluoro-phenyl)-3-cyclohexyl-6,7-dihydro-4H-pyrazolo[1,5-a]pyrazine-5-carboxamide] | 45 |
